Experimental data from article PMC1950744, “Transcription Termination Defective Mutants of Rho: Role of Different Functions of Rho in Releasing RNA from the Elongation Complex” (Journal of Molecular Biology, 2007).

What was measured:
[1] = molecular target: T1, Rho (Escherichia coli, UniProt P0AG30, G51V); assay: UV cross-linking of [γ-32P]ATP, SDS-PAGE, hyperbolic fit; type: binding; settings: read-out: Kd, app
T1 construct: full-length WT rho in pET21b (pRS96; NdeI/XhoI), C-terminal His-tag kept, expressed in E. coli BL21(DE3) (I382N in BL21SI), Ni-NTA and heparin-Sepharose; homo-hexamer; 419 residues natural length
Text: (§1) UV cross-linking of [γ-32P]ATP, SDS-PAGE, hyperbolic fit on Rho

[2] = molecular target: T2, Rho (Escherichia coli, UniProt P0AG30, Y274D); assay: as above; type: binding; settings: read-out: Kd, app
T2 construct: full-length WT rho in pET21b (pRS96; NdeI/XhoI), C-terminal His-tag kept, expressed in E. coli BL21(DE3) (I382N in BL21SI), Ni-NTA and heparin-Sepharose; homo-hexamer; 419 residues natural length
Text: as §1

[3] = molecular target: T3, Rho (Escherichia coli, UniProt P0AG30, P279S); assay: as above; type: binding; settings: read-out: Kd, app
T3 construct: full-length WT rho in pET21b (pRS96; NdeI/XhoI), C-terminal His-tag kept, expressed in E. coli BL21(DE3) (I382N in BL21SI), Ni-NTA and heparin-Sepharose; homo-hexamer; 419 residues natural length
Text: as §1

[4] = molecular target: T4, Rho (Escherichia coli, UniProt P0AG30, N340S); assay: as above; type: binding; settings: read-out: Kd, app
T4 construct: full-length WT rho in pET21b (pRS96; NdeI/XhoI), C-terminal His-tag kept, expressed in E. coli BL21(DE3) (I382N in BL21SI), Ni-NTA and heparin-Sepharose; homo-hexamer; 419 residues natural length
Text: as §1

[5] = molecular target: T5, Rho (Escherichia coli, UniProt P0AG30, I382N); assay: as above; type: binding; settings: read-out: Kd, app
T5 construct: full-length WT rho in pET21b (pRS96; NdeI/XhoI), C-terminal His-tag kept, expressed in E. coli BL21(DE3) (I382N in BL21SI), Ni-NTA and heparin-Sepharose; homo-hexamer; 419 residues natural length
Text: as §1

[6] = molecular target: T6, Rho (Escherichia coli, UniProt P0AG30, G324D); assay: as above; type: binding; settings: read-out: Kd, app
T6 construct: full-length WT rho in pET21b (pRS96; NdeI/XhoI), C-terminal His-tag kept, expressed in E. coli BL21(DE3) (I382N in BL21SI), Ni-NTA and heparin-Sepharose; homo-hexamer; 419 residues natural length
Text: as §1

[7] = system: T7, Nc1ncnc2c1ncn2[C@@H]1O[C@H](COP(=O)(O)OP(=O)(O)OP(=O)(O)O)[C@@H](O)[C@H]1O; assay: ATPase assay, Pi release by TLC, Lineweaver-Burk; type: biochemical, Escherichia coli; settings: poly(C) 10 μM as cofactor, 5 nM Rho, 25 mM Tris-HCl pH 8.0, 50 mM KCl, 5 mM MgCl2, 1 mM DTT, 0.1 mg/ml BSA, 30 °C
T7 construct: full-length WT rho in pET21b (pRS96; NdeI/XhoI), C-terminal His-tag kept, expressed in E. coli BL21(DE3) (I382N in BL21SI), Ni-NTA and heparin-Sepharose; homo-hexamer; 419 residues natural length
Text: ATPase assay, Pi release by TLC, Lineweaver-Burk on Rho

T4 sequence (P0AG30 whole entry N340S): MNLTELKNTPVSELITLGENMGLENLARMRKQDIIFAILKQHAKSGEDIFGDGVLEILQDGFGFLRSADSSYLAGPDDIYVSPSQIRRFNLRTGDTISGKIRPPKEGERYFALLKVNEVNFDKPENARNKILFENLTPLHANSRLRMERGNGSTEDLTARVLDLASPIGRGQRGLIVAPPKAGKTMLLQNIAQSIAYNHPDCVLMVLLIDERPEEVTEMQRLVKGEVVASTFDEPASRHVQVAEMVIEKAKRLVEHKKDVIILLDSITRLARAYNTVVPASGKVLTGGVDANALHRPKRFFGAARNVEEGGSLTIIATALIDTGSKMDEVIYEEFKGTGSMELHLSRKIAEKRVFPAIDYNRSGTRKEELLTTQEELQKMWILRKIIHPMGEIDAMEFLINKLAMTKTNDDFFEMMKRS
T2 sequence (P0AG30 whole entry Y274D): as the sequence (P0AG30 whole entry N340S) above, with Y274D, S340N counted along it
T6 sequence (P0AG30 whole entry G324D): as the sequence (P0AG30 whole entry N340S) above, with G324D, S340N counted along it
T5 sequence (P0AG30 whole entry I382N): as the sequence (P0AG30 whole entry N340S) above, with S340N, I382N counted along it
T3 sequence (P0AG30 whole entry P279S): as the sequence (P0AG30 whole entry N340S) above, with P279S, S340N counted along it
T1 sequence (P0AG30 whole entry G51V): as the sequence (P0AG30 whole entry N340S) above, with G51V, S340N counted along it

Compound | Kd [1] [nM] | Kd [2] [µM] | Kd [3] [µM] | Kd [4] [nM] | Kd [5] [nM] | Kd [6] [nM] | Km [7] [µM]
Nc1ncnc2c1ncn2[C@@H]1O[C@H](COP(=O)(O)OP(=O)(O)OP(=O)(O)O)[C@@H](O)[C@H]1O [ATP] | 1350 ± 260 | 3.15 ± 0.26 | 4.28 ± 0.54 | 1090 ± 120 | 600 ± 100 | 2450 ± 150 | 
Rho (Escherichia coli K-12; Y80C) |  |  |  |  |  |  | 43.2 ± 0.8
